Experimental data as given in US20250236613A1, “SARM1 MODULATORS, PREPARATIONS, AND USES THEREOF” (SIRONAX LTD., priority 2021, published 2025).

Biological target: SARM1 (50-724) (Homo sapiens (Human), UniProt Q6SZW1)
Experiment: SARM1 (50-724) enzymatic assay
Format: biochemical
Details: SARM1 inhibitory activity; 2 nM SARM1 (50-724), 200 μM NMN activator, 100 μM NAD+ substrate, 1 h, LC-MS/MS
Protocol: The enzymatic assay was performed in a 384-well plate using Dulbecco's PBS buffer as the reaction buffer. Purified SARM1 (50-724) with a final concentration of 2 nM was pre-incubated with the test compound at 1% DMSO final assay concentration for 15 min at room temperature. The reaction was initiated by adding the mixture of 200 μM NMN as activator and 100 μM NAD^+ as substrate. After 1 h of incubation at room temperature, the reaction was terminated with 10 times volume of 70% acetonitrile, then centrifuged at 3800 rpm for 10 min. The samples were analyzed using LC-MS/MS after diluted to the proper concentration by 10 mM ammonium acetate (pH 9.75).

SARM1 (50-724), sequence (Q6SZW1 50-724): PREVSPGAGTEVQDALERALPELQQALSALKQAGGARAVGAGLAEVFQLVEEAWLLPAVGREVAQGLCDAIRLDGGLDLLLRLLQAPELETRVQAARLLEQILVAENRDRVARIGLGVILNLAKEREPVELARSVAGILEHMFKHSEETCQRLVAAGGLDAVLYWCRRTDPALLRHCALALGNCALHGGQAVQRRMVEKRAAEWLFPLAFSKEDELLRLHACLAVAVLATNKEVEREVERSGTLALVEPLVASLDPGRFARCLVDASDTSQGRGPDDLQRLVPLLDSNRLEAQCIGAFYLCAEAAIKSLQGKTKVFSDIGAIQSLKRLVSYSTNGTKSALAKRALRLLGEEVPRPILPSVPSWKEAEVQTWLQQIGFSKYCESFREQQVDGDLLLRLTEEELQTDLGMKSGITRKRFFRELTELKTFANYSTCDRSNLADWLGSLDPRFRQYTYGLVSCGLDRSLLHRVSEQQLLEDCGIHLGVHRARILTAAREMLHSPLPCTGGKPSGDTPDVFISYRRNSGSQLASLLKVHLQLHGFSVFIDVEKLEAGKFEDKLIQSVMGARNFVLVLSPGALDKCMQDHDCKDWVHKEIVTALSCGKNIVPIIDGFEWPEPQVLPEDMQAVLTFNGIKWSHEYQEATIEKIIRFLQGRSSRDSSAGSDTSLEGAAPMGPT

Compound | IC50
O=c1[nH]c2ccc(-c3cncc(Nc4nccs4)c3)cc2o1 [Compound 115, 6-(5-(thiazol-2-ylamino)pyridin-3-yl)benzo[d]oxazol-2(3H)-one] | < 5 µM
Cc1cc(Nc2cncc(-c3ccc4[nH]c(=O)oc4c3)c2)n(C)n1 [Compound 117, 6-(5-((1,3-dimethyl-1H-pyrazol-5-yl)amino)pyridin-3-yl)benzo[d]oxazol-2(3H)-one] | < 5 µM
O=c1[nH]c2ccc(-c3cncc(Nc4cccnn4)c3)cc2o1 [Compound 118, 6-(5-(pyridazin-3-ylamino)pyridin-3-yl)benzo[d]oxazol-2(3H)-one] | < 5 µM
O=c1[nH]c2ccc(-c3cncc(Oc4ccccc4)c3)cc2o1 [Compound 119, 6-(5-phenoxypyridin-3-yl)benzo[d]oxazol-2(3H)-one] | < 5 µM
Cc1ccncc1-c1ccc2[nH]c(=O)[nH]c(=O)c2c1 [Compound 120, 6-(4-methylpyridin-3-yl)quinazoline-2,4(1H,3H)-dione] | < 5 µM
